Data: publication PMC8234231, “In Vitro Inhibition of Renal OCT2 and MATE1 Secretion by Antiemetic Drugs” (International Journal of Molecular Sciences, 2021)

Key:
[1] = system: empty vector (EV) HEK293 cells; test: Concentration-dependent uptake of ASP+ in empty vector HEK293 cells; type: cell-based, human; conditions: EV HEK293, 0–100 μM, 1 min
Experimental: Figure 2 Time and Concentration-Dependent Accumulation of ASP^+ in HEK293 Cells Overexpressing OCT2 or MATE1. HEK cells expressing empty vector (EV), OCT2, or MATE1 were incubated for different time periods (0.5–20 min, 10 μM ASP^+, 37 °C) to evaluate time-dependent uptake (A) or with increasing concentrations of ASP^+ (0–100 μM, 1 min 37 °C) for concentration-dependent uptake (B) on a shaker. Specific transport uptake is shown in dashed lines. Intracellular fluorescence was quantified and normalized to protein concentration. Data are presented as mean ± SE (n = 3).
OCT2- and MATE1-overexpressing HEK293 cells were seeded in clear poly-^D-lysine-coated 24-well plates (Fisher Scientific, Hanover Park, IL, USA) and grown for 24 h until approximately 90% confluent. […]
GraphPad Prism v6 (GraphPad Software, La Jolla, CA, USA) was used for statistical analysis. Km and Vmax were calculated using nonlinear regression (Michaelis–Menten enzyme kinetics equation, (Y = Vmax × X/(Km + X), fit for least squares). Data with two variables were analyzed using a two-way ANOVA followed by a one-way ANOVA and/or Dunnett’s post-hoc test for multiple comparisons. IC50 values were calculated via a nonlinear regression to fit least squares. Differences were considered statistically significant at p < 0.05.

MATE1 = biological target: T1, MATE1 (Homo sapiens, UniProt Q96FL8); test: Concentration-dependent uptake of ASP+ in MATE1-expressing HEK293 cells; type: cell-based
T1 construct: expressed in transfected cells; gift of Dr. Kathy Giacomini, UCSF
T1 sequence (Q96FL8 1-570): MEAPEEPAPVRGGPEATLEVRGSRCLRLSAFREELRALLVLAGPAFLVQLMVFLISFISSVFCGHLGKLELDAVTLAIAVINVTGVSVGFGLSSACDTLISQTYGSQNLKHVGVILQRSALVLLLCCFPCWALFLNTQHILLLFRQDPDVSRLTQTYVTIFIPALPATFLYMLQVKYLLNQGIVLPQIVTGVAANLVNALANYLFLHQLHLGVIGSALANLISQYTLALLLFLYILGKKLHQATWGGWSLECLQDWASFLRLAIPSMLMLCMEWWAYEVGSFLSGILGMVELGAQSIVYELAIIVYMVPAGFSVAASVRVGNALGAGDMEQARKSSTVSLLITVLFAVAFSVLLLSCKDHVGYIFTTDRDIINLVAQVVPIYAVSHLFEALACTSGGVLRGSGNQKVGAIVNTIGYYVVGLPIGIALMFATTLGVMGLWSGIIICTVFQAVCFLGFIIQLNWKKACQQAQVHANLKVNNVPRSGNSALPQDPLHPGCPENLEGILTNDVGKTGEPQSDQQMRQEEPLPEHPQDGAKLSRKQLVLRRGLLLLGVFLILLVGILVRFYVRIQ
Experimental: After washing once with prewarmed Hank’s Buffered Saline Solution (HBSS), cells were preincubated for 30 min at 37 °C with various 5-HT3 antagonists for OCT2 cells or in a 30 mM NH4Cl solution in HBSS at pH 6.5 for MATE1 cells for intracellular acidification. […] […] […] Media was removed and washed four times with ice-cold HBSS. Cells were lysed with 1% Triton X-100. […] Experiments were repeated three separate times, with three to four replicates in each experiment.
GraphPad Prism v6 (GraphPad Software, La Jolla, CA, USA) was used for statistical analysis.

OCT2 and MATE1 = test: Bidirectional transcellular flux of ASP+ in OCT2/MATE1 double-transfected MDCK cells; type: cell-based, human; conditions: human, ASP+ 25 μM, read-out: B-to-A/A-to-B efflux ratio
Experimental: (§1) Figure 4 Transcellular Flux of ASP^+ in Control and OCT2/MATE1-Transfected MDCK cells. (A). Protein expression of OCT2 (~63 kDa,) and MATE1 (~54 kDa) in vector control MDCK cells (lanes 1–2) and OCT2/MATE1 double transfected (lanes 3–4). (B). Cells were incubated with ASP^+ (25 μM) in either apical or basolateral media for 120 min and fluorescence in apical or basolateral media was quantified (A-to-B: apical-to-basolateral; B-to-A: basolateral-to-apical). ^† p < 0.05 compared to A-to-B. ^‡ p < 0.05 compared to vector. (C). Cells were incubated with ASP^+ (25 μM) in basolateral media and positive control inhibitors in apical and basolateral media for 120 min. Fluorescence was measured in the apical chamber. (D). Intracellular fluorescence was quantified and normalized to protein concentration. Data are expressed as mean ± SE (n = 3). * p < 0.05 compared to no inhibitor. CIM–Cimetidine; PYR–Pyrimethamine; OLA–Olanzapine.
(§2) Cells were incubated with 5-HT3 antagonists in the apical chamber in HBSS pH 6.0 and 5-HT3 antagonists with ASP^+ (25 μM) in the basolateral chamber in HBSS pH 7.4 and incubated at 37 °C for 120 min. […]

human OCT2 and MATE1 = test: as above; type: cell-based; conditions: ASP+ 25 μM, 120 min
Experimental: as §1, §2

[2] = Bidirectional transcellular flux of ASP+ in control MDCK cells; type: cell-based, canine; conditions: dog, ASP+ 25 μM, read-out: B-to-A transport relative to A-to-B transport
Experimental: as §1, §2

MDCK monolayers = test: Passive permeability of lucifer yellow across MDCK monolayers; type: in vitro ADME, canine; conditions: lucifer yellow 20 μM, B-to-A, 1 h
Experimental: Both MDCK cell lines were seeded on 0.4 μm transwell inserts (VWR, Radnor, PA, USA) at a density of 2 × 10^5 cells/cm^2. […] The integrity of MDCK monolayers was verified by measuring transepithelial electrical resistance (TEER) >150 Ω*cm^2 using an epithelial voltohmmeter, EVOM^2 (World Precision Instruments, Sarasota, FL). Proper formation of tight junctions was also verified by measurement of passive permeability of lucifer yellow in the basolateral-to-apical (B-to-A) direction. Lucifer yellow (20 μM) was applied to the basolateral chamber for 1 h, and media were collected from the apical chamber.

Q: For `CN(C)c1ccc(C=Cc2cc[n+](C)cc2)cc1.[I-]` [ASP^+, 4-(4-(Dimethylamino)styryl)-N-methylpyridinium iodide], which Km [1] is on record?
A: 37.3 µM

Q: What about the “Vmax of ASP+ uptake” value [1] of the same molecule?
A: 1.9 nmol/mg/min

Q: And the “Vmax of ASP+ uptake” value (MATE1; MATE1-expressing HEK293, 0–100 μM, 1 min)?
A: 3.4 nmol/mg/min

Q: And the Km at 1 min (MATE1; human, HEK293 cells overexpressing MATE1, pH 7.4, MATE1-expressing HEK293, 0–100 μM)?
A: 8.2 µM

Q: And the efflux ratio at 120 min, 25 μM (OCT2 and MATE1)?
A: 2.7

Q: And the “B-to-A transport relative to A-to-B transport” value (human OCT2 and MATE1)?
A: up to 2.8 fold

Q: And the efflux ratio at 90 min, 25 μM ([2]; 90 min)?
A: 1.3

Q: What about the efflux ratio at 120 min, 25 μM ([2]; 120 min) of the same molecule?
A: 1.7

Q: With Lucifer yellow as the molecule, how does the “Average passive permeability (Papp)” value (MDCK monolayers) read?
A: 0.7 ×10⁻⁶ cm/s
